From PubChem BioAssay AID248 (DTP/NCI, 2004) come the findings set out here.

The test system of this test is L1210 leukemia ip in BDF1 mice, survival T/C. In words: NCI In Vivo Anticancer Drug Screen. Data for tumor model L1210 Leukemia (intraperitoneal) in B6D2F1 (BDF1) mice. The conditions noted are these: endpoint: mean survival time, higher = longer survival. The gist of the method:
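Tumor cells were implanted, animals were treated, and survival was followed. The result divides the treated measurement by the vehicle-control measurement.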

The mark [1] stands for this setting: dose: 100.0 mg/kg/injection, schedule: Q01DX001 (ip), vehicle: saline.
The mark [2] stands for this setting: dose: 200.0 mg/kg/injection, schedule: Q01DX001 (ip), vehicle: saline.
Where [3] appears, read: dose: 50.0 mg/kg/injection, schedule: Q04DX003 (ip), vehicle: saline with Tween-80.
Where [4] appears, read: dose: 100.0 mg/kg/injection, schedule: Q04DX003 (ip), vehicle: saline with Tween-80.
Where [5] appears, read: dose: 100.0 mg/kg/injection, schedule: Q04DX002 (ip), vehicle: Klucel (hydroxypropylcellulose) (HPC).
[6] abbreviates: dose: 200.0 mg/kg/injection, schedule: Q04DX002 (ip), vehicle: Klucel (hydroxypropylcellulose) (HPC).
Setting [7] is: dose: 100.0 mg/kg/injection, schedule: Q01DX009 (ip), vehicle: Klucel (hydroxypropylcellulose) (HPC).
Where [8] appears, read: dose: 100.0 mg/kg/injection, schedule: Q04DX003 (ip), vehicle: Klucel (hydroxypropylcellulose) (HPC).
Where [9] appears, read: dose: 200.0 mg/kg/injection, schedule: Q04DX003 (ip), vehicle: Klucel (hydroxypropylcellulose) (HPC).
The mark [10] stands for this setting: dose: 400.0 mg/kg/injection, schedule: Q04DX003 (ip), vehicle: Klucel (hydroxypropylcellulose) (HPC).
[11] abbreviates: dose: 100.0 mg/kg/injection, schedule: Q01DX009 (ip), vehicle: saline.
Setting [12] is: dose: 200.0 mg/kg/injection, schedule: Q01DX009 (ip), vehicle: saline.

Molecules are shown by their SMILES. “And” between values parts separate entries of the source, which are not always exact repeats. Equal values may be shown once. Toxic doses and inconclusive results are not listed.

`COc1ccc2c(c1)CCCC2CC(=O)c1ccccc1` (stereo not drawn): the T/C is 98 % of control (dose: 50.0 mg/kg/injection, schedule: Q01DX009 (ip), vehicle: acetone); 95 % of control (dose: 100.0 mg/kg/injection, schedule: Q01DX009 (ip), vehicle: acetone); 86 % of control (dose: 100.0 mg/kg/injection, schedule: Q04DX003 (ip), vehicle: acetone); 107 % of control (dose: 198.0 mg/kg/injection, schedule: Q01DX009 (ip), vehicle: other); 98 % of control (dose: 200.0 mg/kg/injection, schedule: Q01DX009 (ip), vehicle: acetone); 87 % of control (dose: 200.0 mg/kg/injection, schedule: Q04DX003 (ip), vehicle: acetone). Moreover, the T/C (dose: 300.0 mg/kg/injection, schedule: Q01DX009 (ip), vehicle: other) was 104 % of control.
Regarding `NC(CSSCC(NC(=O)C(F)(F)F)C(=O)O)C(=O)O` (stereo not drawn), the T/C is 96 % of control (dose: 50.0 mg/kg/injection, schedule: Q01DX001 (ip), vehicle: saline); 98 % of control under setting [1]; 93 % of control under setting [2].
Consider `c1ccc(C2(c3ccccc3)c3ccc([nH]3)C(c3ccccc3)(c3ccccc3)c3ccc([nH]3)C(c3ccccc3)(c3ccccc3)c3ccc([nH]3)C(c3ccccc3)(c3ccccc3)c3ccc2[nH]3)cc1`, for which the T/C under setting [1] is 97 % of control; the T/C under setting [2] is 100 % of control; the T/C (dose: 400.0 mg/kg/injection, schedule: Q01DX001 (ip), vehicle: saline) was 100 % of control.
For `O=C(CC(O)(C(F)(F)F)C(F)(F)F)c1cccs1`, the T/C is, setting by setting: (dose: 50.0 mg/kg/injection, schedule: Q01DX009 (ip), vehicle: saline with Tween-80) 109 % of control; under setting [3], 98 % of control; (dose: 100.0 mg/kg/injection, schedule: Q01DX009 (ip), vehicle: saline with Tween-80) 102 % of control; under setting [4], 98 % of control; (dose: 200.0 mg/kg/injection, schedule: Q04DX003 (ip), vehicle: saline with Tween-80) 96 % of control.
Regarding `N#CCCNC(=O)N(CCC#N)N=O`, the T/C was 100 % of control (dose: 3.12 mg/kg/injection, schedule: Q01DX Z (ip), vehicle: carboxymethylcellulose (CMC)); 102 % of control (dose: 6.25 mg/kg/injection, schedule: Q01DX Z (ip), vehicle: carboxymethylcellulose (CMC)); 103 % of control (dose: 12.5 mg/kg/injection, schedule: Q01DX Z (ip), vehicle: carboxymethylcellulose (CMC)); 118 % of control (dose: 25.0 mg/kg/injection, schedule: Q01DX Z (ip), vehicle: carboxymethylcellulose (CMC)); 153 % of control (dose: 75.0 mg/kg/injection, schedule: Q01DX Z (ip), vehicle: carboxymethylcellulose (CMC)); 118 % of control (dose: 100.0 mg/kg/injection, schedule: Q01DX Z (ip), vehicle: carboxymethylcellulose (CMC)). Moreover, the T/C (dose: 150.0 mg/kg/injection, schedule: Q01DX Z (ip), vehicle: carboxymethylcellulose (CMC)) is 155 % of control and the T/C (dose: 200.0 mg/kg/injection, schedule: Q01DX Z (ip), vehicle: carboxymethylcellulose (CMC)) was 116 % of control.
`CC(=O)SCN1C(=O)C2C3CCC(O3)C2C1=O` (stereo not drawn): the T/C by setting is: under setting [5], 91 % of control; under setting [6], 91 % of control; (dose: 400.0 mg/kg/injection, schedule: Q04DX002 (ip), vehicle: Klucel (hydroxypropylcellulose) (HPC)) 105 % of control.
For the molecule `NNC(=O)CNc1ccc(Br)cc1`, the T/C was 112 % of control under setting [5] and 106 % of control under setting [6].
Take `CCC(/C=C\C(C)C1CCC2C3C=CC45CC4CCC5(C)C3CCC12C)C(C)C` (stereo not drawn): the T/C reads like this: (dose: 100.0 mg/kg/injection, schedule: Q01DX001 (ip), vehicle: saline with Tween-80) 96 % of control; (dose: 200.0 mg/kg/injection, schedule: Q01DX001 (ip), vehicle: saline with Tween-80) 89 % of control; (dose: 400.0 mg/kg/injection, schedule: Q01DX001 (ip), vehicle: saline with Tween-80) 86 % of control.
Regarding `C#C/C=C/CC1OC(C(Br)CC)CC(Br)C2CC1O2` (stereo not drawn), the T/C was 92 % of control (dose: 75.0 mg/kg/injection, schedule: Q01DX001 (ip), vehicle: carboxymethylcellulose (CMC)); 96 % of control (dose: 150.0 mg/kg/injection, schedule: Q01DX001 (ip), vehicle: carboxymethylcellulose (CMC)); 96 % of control (dose: 300.0 mg/kg/injection, schedule: Q01DX001 (ip), vehicle: carboxymethylcellulose (CMC)).
Take `Cc1ccc(CNc2cccc([N+](=O)[O-])c2)cc1`: the T/C under setting [7] was 98 % of control; the T/C under setting [8] is 98 % of control; the T/C (dose: 200.0 mg/kg/injection, schedule: Q01DX009 (ip), vehicle: Klucel (hydroxypropylcellulose) (HPC)) is 93 % of control; the T/C under setting [9] is 96 % of control; the T/C (dose: 400.0 mg/kg/injection, schedule: Q01DX009 (ip), vehicle: Klucel (hydroxypropylcellulose) (HPC)) is 102 % of control; the T/C under setting [10] was 101 % of control.
Turning to `O=Nc1[nH]c(O)c2ccccc12`, the T/C runs as follows: under setting [8], 97 % of control and 91 % of control; under setting [9], 99 % of control and 103 % of control; under setting [10], 103 % of control and 89 % of control.
Regarding `COCC1OC(OC2OCC3OC4(OCC(O)(C(C)OC)C5OCOC54)OC3C2OC)C(OC)C(O)C1OC1OC(C)C(OC)C(OC2OC(C)C3OC4(CC(O)C(OC5CC(OC6CC(C)([N+](=O)[O-])C(OC)C(C)O6)C(OC(=O)c6c(C)c(Cl)c(O)c(Cl)c6OC)C(C)O5)C(C)O4)OC3(C)C2O)C1O` (stereo not drawn), the T/C is, setting by setting: (dose: 50.0 mg/kg/injection, schedule: Q01DX009 (ip), vehicle: saline) 106 % of control; under setting [11], 106 % of control; under setting [12], 96 % of control.
For the molecule `COC(=O)c1cc(C)cc(N(c2ccccc2N)S(=O)(=O)c2ccc(C)cc2)c1C`, the T/C was 92 % of control under setting [1] and 92 % of control under setting [2].
Take `O=c1cc(-c2ccc(S(=O)(=O)F)cc2)[nH]c2ccc([N+](=O)[O-])cc12`: the T/C runs as follows: under setting [11], 101 % of control; under setting [12], 101 % of control; (dose: 400.0 mg/kg/injection, schedule: Q01DX009 (ip), vehicle: saline) 100 % of control.
Turning to `CC1(C)CN(Cc2ccccc2)C(C)(C)CN1N`, the T/C (dose: 6.25 mg/kg/injection, schedule: Q01DX009 (ip), vehicle: saline with Tween-80) was 96 % of control; the T/C (dose: 12.5 mg/kg/injection, schedule: Q01DX009 (ip), vehicle: saline with Tween-80) is 100 % of control; the T/C (dose: 25.0 mg/kg/injection, schedule: Q01DX009 (ip), vehicle: saline with Tween-80) is 102 % of control; the T/C (dose: 25.0 mg/kg/injection, schedule: Q04DX003 (ip), vehicle: saline with Tween-80) was 105 % of control; the T/C under setting [3] is 102 % of control; the T/C under setting [4] was 113 % of control.
`CC(C)(C)c1cc(/C=C/C(=O)O)cc(C(C)(C)C)c1O`: the T/C is 107 % of control (dose: 100.0 mg/kg/injection, schedule: Q01DX001 (ip), vehicle: Klucel (hydroxypropylcellulose) (HPC)); 96 % of control (dose: 200.0 mg/kg/injection, schedule: Q01DX001 (ip), vehicle: Klucel (hydroxypropylcellulose) (HPC)); 90 % of control (dose: 400.0 mg/kg/injection, schedule: Q01DX001 (ip), vehicle: Klucel (hydroxypropylcellulose) (HPC)).
In the case of `COc1ccc(NC(=O)Oc2ccc(C(C)=O)cc2)cc1`, the T/C (dose: 25.0 mg/kg/injection, schedule: Q01DX009 (ip), vehicle: Klucel (hydroxypropylcellulose) (HPC)) is 100 % of control; the T/C (dose: 50.0 mg/kg/injection, schedule: Q01DX009 (ip), vehicle: Klucel (hydroxypropylcellulose) (HPC)) is 94 % of control; the T/C under setting [7] was 97 % of control and 91 % of control.
For the molecule `C=C/C=C\N(CC)CC`, the T/C runs as follows: (dose: 6.25 mg/kg/injection, schedule: Q01DX009 (ip), vehicle: water) 98 % of control; (dose: 12.5 mg/kg/injection, schedule: Q01DX009 (ip), vehicle: water) 97 % of control; (dose: 25.0 mg/kg/injection, schedule: Q01DX009 (ip), vehicle: water) 104 % of control; (dose: 25.0 mg/kg/injection, schedule: Q04DX003 (ip), vehicle: water) 95 % of control; (dose: 50.0 mg/kg/injection, schedule: Q01DX009 (ip), vehicle: water) 98 % of control; (dose: 50.0 mg/kg/injection, schedule: Q04DX003 (ip), vehicle: water) 88 % of control. Besides, the T/C (dose: 100.0 mg/kg/injection, schedule: Q04DX003 (ip), vehicle: water) was 100 % of control.
